The text below walks through data of ChEMBL document CHEMBL1909046, “DrugMatrix in vitro pharmacology data”.

One test deals with T1, Calcitonin receptor (Homo sapiens, UniProt P30988).
T1 sequence (P30988 whole entry): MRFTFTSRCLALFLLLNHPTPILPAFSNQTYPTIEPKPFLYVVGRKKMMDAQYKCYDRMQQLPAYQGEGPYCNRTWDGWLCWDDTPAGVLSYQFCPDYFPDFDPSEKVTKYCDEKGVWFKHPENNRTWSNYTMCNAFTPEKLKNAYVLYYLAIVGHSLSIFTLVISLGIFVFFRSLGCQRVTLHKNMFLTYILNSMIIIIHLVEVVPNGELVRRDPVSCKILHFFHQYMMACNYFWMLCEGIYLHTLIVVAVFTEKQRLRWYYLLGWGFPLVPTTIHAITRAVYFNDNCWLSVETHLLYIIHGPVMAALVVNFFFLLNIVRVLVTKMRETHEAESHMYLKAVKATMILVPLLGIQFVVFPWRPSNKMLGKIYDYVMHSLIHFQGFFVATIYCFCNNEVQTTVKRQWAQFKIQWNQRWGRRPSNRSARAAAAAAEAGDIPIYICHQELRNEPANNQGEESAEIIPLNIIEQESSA
The class given is cell membranes, Membrane. The following applies: t47d.

For test [1], the target named is Receptor tyrosine-protein kinase erbB-2 (Homo sapiens, UniProt P04626). Put plainly: biochemical. The following applies: insect cells. The class given is cell-based, Insect cells.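 Also: inhibition of HER2 kinase enzyme activity, measured with Poly(Glu:Tyr) as the phosphorylation substrate; in other assays of this panel Not Active means under 50% inhibition at 10 µM.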
In test [2] the target is T2, Alpha-2C adrenergic receptor (Homo sapiens, UniProt P18825).
T2 sequence (P18825 whole entry): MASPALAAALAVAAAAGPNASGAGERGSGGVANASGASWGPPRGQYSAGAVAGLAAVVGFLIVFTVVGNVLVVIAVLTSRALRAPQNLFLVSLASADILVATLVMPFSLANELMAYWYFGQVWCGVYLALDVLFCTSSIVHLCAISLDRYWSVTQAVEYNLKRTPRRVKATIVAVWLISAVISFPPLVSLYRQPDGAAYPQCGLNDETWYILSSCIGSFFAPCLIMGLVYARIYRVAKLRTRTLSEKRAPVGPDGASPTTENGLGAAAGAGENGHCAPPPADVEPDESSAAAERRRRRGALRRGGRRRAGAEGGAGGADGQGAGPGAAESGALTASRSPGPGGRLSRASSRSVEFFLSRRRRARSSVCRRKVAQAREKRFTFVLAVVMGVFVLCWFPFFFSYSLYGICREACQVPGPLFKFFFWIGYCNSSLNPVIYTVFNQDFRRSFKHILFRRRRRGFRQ
Put plainly: DRUGMATRIX: Adrenergic Alpha-2C radioligand binding (ligand: [3H] MK-912). The following applies: sf9. The class given is cell membranes, Sf9, Membrane.

Another test has as its target T3, Interstitial collagenase (Homo sapiens, UniProt P03956).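 Also: MMP-1 enzyme inhibition assay using a peptide substrate; in other assays of this panel Not Active means under 50% inhibition at 10 µM.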
T3 sequence (P03956 whole entry): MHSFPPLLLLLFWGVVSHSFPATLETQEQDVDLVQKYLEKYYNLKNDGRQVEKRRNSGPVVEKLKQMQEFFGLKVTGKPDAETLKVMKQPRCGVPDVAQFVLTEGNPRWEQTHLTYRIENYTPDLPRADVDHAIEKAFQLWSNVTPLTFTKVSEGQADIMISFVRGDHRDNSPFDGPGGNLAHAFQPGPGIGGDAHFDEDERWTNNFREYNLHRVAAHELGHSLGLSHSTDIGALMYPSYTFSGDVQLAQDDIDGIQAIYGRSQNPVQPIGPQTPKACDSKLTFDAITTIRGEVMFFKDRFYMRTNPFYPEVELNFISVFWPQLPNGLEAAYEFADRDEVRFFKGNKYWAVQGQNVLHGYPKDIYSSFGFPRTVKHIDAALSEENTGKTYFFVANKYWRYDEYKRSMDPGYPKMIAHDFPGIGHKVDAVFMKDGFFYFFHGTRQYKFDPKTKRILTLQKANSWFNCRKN
The class given is tissue-based, Rheumatoid synovial fibroblasts.

Test [3] can be described thus: DRUGMATRIX: Glutamate, Kainate radioligand binding (ligand: [3H] Kainic acid). The class given is cell membranes, Rattus norvegicus, Wistar, Brain, Membrane. The following applies: Not Active = under 50% inhibition at 10 µM.
Test [4] is described as follows: DRUGMATRIX: Sigma2 radioligand binding (ligand: [3H] Ifenprodil). As to conditions: Not Active = under 50% inhibition at 10 µM. The class given is cell membranes, Rattus norvegicus, Wistar, Brain, Membrane.

For orientation: IC50 means the concentration that inhibits the measured activity by half.

Regarding `COc1ccc2cc(CCC(C)=O)ccc2c1` [NABUMETONE], the concentration for half-maximal inhibition (IC50) entry (at Calcitonin receptor; in test [1]; in test [2]; on Interstitial collagenase; in test [3]; in test [4]) was “Not Active” in each case. In addition, the Ki result in test [3] and in test [4] was “Not Active” in each case.
Turning to `O=C(O)c1cccnc1` [NIACIN], the IC50 entry (at Calcitonin receptor; in test [1]; in test [2]; at Interstitial collagenase; in test [3]; in test [4]) was “Not Active” in each case. The Ki result in test [3] and in test [4] was “Not Active” throughout.
As to `CNC(=C[N+](=O)[O-])NCCSCc1csc(CN(C)C)n1` [NIZATIDINE], the IC50 result (on Calcitonin receptor; in test [1]; in test [2]; against Interstitial collagenase; in test [3]; in test [4]) was “Not Active” throughout. Moreover, the Ki result in test [3] and in test [4] was “Not Active” in each case.
Regarding `C[C@]12C/C(=C/O)C(=O)C[C@@H]1CC[C@@H]1[C@@H]2CC[C@@]2(C)[C@H]1CC[C@]2(C)O` [OXYMETHOLONE], the IC50 entry (at Calcitonin receptor; in test [1]; in test [2]; at Interstitial collagenase; in test [3]; in test [4]) was “Not Active” throughout. Further, the Ki entry in test [3] and in test [4] was “Not Active” in each case.
Consider `CC(C)(CO)C(O)C(=O)NCCCO` (stereo not drawn) [PANTHENOL], for which the concentration for half-maximal inhibition (IC50) result (on Calcitonin receptor; in test [1]; in test [2]; against Interstitial collagenase; in test [3]; in test [4]) was “Not Active” in each case. Besides, the Ki entry in test [3] and in test [4] was “Not Active” each time.
Take `COc1ccc(Cc2nccc3cc(OC)c(OC)cc23)cc1OC` [PAPAVERINE]: the IC50 result (on Calcitonin receptor; in test [1]; in test [2]; against Interstitial collagenase; in test [3]; in test [4]) was “Not Active” each time. In addition, the Ki entry in test [3] and in test [4] was “Not Active” each time.
Consider `OCCN1CCN(CCCN2c3ccccc3Sc3ccc(Cl)cc32)CC1` [PERPHENAZINE], for which the IC50 result (at Calcitonin receptor; in test [1]; in test [2]; against Interstitial collagenase; in test [3]; in test [4]) was “Not Active” throughout. Besides, the Ki result in test [3] and in test [4] was “Not Active” in each case.
Consider `CCCCC1C(=O)N(c2ccccc2)N(c2ccccc2)C1=O` [PHENYLBUTAZONE], for which the IC50 result (on Calcitonin receptor; in test [1]; in test [2]; against Interstitial collagenase; in test [3]; in test [4]) was “Not Active” in each case. Also, the Ki entry in test [3] and in test [4] was “Not Active” throughout.
For the molecule `Cc1cccc(Nc2cc(Cl)nc(SCC(=O)O)n2)c1C` [PIRINIXIC ACID], the IC50 entry (at Calcitonin receptor; in test [1]; in test [2]; at Interstitial collagenase; in test [3]; in test [4]) was “Not Active” in each case. For the same molecule, the Ki result in test [3] and in test [4] was “Not Active” throughout.
Regarding `CC[C@H](C)C(=O)O[C@H]1C[C@H](O)C=C2C=C[C@H](C)[C@H](CC[C@@H](O)C[C@@H](O)CC(=O)O)[C@H]21` [PRAVASTATIN], the half-inhibitory concentration (IC50) result (at Calcitonin receptor; in test [1]; in test [2]; on Interstitial collagenase; in test [3]; in test [4]) was “Not Active” throughout. Moreover, the Ki result in test [3] and in test [4] was “Not Active” each time.
For `CC(C)(Sc1cc(C(C)(C)C)c(O)c(C(C)(C)C)c1)Sc1cc(C(C)(C)C)c(O)c(C(C)(C)C)c1` [PROBUCOL], the IC50 entry (at Calcitonin receptor; in test [1]; in test [2]; at Interstitial collagenase; in test [3]; in test [4]) was “Not Active” each time. The Ki result in test [3] and in test [4] was “Not Active” in each case.
As to COBALT(II) ACETYLACETONATE, the IC50 entry at Calcitonin receptor is “Not Active”; in test [1] (read-out: IC50), 3.17 µM; in test [2], “Not Active”; on Interstitial collagenase, “Not Active”; in test [3], “Not Active”; in test [4] it was “Not Active”. Moreover, the Ki result (on Calcitonin receptor; in test [2]; at Interstitial collagenase; in test [3]; in test [4]) was “Not Active” in each case.
With INSULIN HUMAN, the IC50 entry (on Calcitonin receptor; in test [1]; in test [2]; against Interstitial collagenase; in test [3]; in test [4]) was “Not Active” in each case. In addition, the Ki result (at Calcitonin receptor; in test [1]; in test [2]; at Interstitial collagenase; in test [3]; in test [4]) was “Not Active” in each case.
Turning to POLYVINYL ALCOHOL, the IC50 entry (at Calcitonin receptor; in test [1]; in test [2]; against Interstitial collagenase; in test [3]; in test [4]) was “Not Active” each time. The Ki result (on Calcitonin receptor; in test [1]; in test [2]; on Interstitial collagenase; in test [3]; in test [4]) was “Not Active” throughout.
